The record followed here is patent publication US11959088B2, “Modifying protein production in plants” (MEDICAGO INC., priority 2014, dated 2024).

Each structure is given as a SMILES string.

The subject of assay [1] is Nicotiana benthamiana plants. Briefly: BAP treatment after seedling transplantation: primary and secondary leaf biomass. Format: in vivo.
In assay [2] the test system is Nicotiana benthamiana plants. As to the kind of experiment: BAP treatment after seedling transplantation: HA production (hemagglutination assay) after agroinfiltration with construct 484. Conditions: 500 ppm after 7 and 12 days. Format: in vivo.
[3] abbreviates: 500 ppm 7 days after transplantation.

Consider `c1ccc(CNc2ncnc3nc[nH]c23)cc1` [BAP, 6-benzylaminopurine], for which the “effect on primary biomass” value in assay [1] (100, 500 or 1,000 ppm, 7 and/or 12 days after transplantation (FIG. 9)) was “little effect”. For the same molecule, in assay [1] (100 or 500 ppm, 7 and/or 12 days after transplantation (FIG. 9)), the “effect on secondary biomass production” value is recorded as “significant positive effect”. Also, in assay [1] (setting [3]), the “increase for primary biomass compared to control” value was “less than 10%” and the “relative increase of secondary leaf biomass compared to control (non-treated) plants” value is reported as “about 37.5%”. Besides, the “effect on secondary biomass production” value in assay [1] (1,000 ppm treatment (FIG. 9)) was “no positive impact”. In addition, in assay [1] (plants treated with 500 ppm 7 days after transplantation, control ca. 16 g), the “secondary leaf biomass harvested” value was “ca. 22 g”. The “increase of total HA yield per plant” value in assay [2] (versus control (non-treated) plants) was 45-50%. Moreover, the “yield of HA per g fresh weight” value in assay [2] (control less than 200,000 units (FIG. 10)) is recorded as “more than 300,000 units per g fresh weight”.
